Results as given in patent publication US11878970B2, “Allosteric chromenone inhibitors of phosphoinositide 3-kinase (PI3K) for the treatment of disease” (Petra Pharma Corporation, priority 2021, dated 2024).

Assays:
[1] = molecular target: T1, PI3K-α (PIK3CA) wild-type (WT), p110α/p85α complex (Homo sapiens, UniProt P42336); test: PI3K-alpha kinase (PIK3CA) biochemical activity, ADP-Glo, wild-type; conditions: Soy PI lipid substrate
T1 construct: Recombinant, catalytically active human full length PIK3KA Wild-type and H1047R mutant; 6×His (N); purchased EMD Millipore Sigma 14-602M
Summary of the method: (§1)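 ADP formation measured by ADP-Glo luminescence after reaction at 27 °C to about 10% ATP turnover, using 20 uM ATP, 50 uM PIP2diC8 or soy PI lipid, HEPES pH 7.4 with MgCl2. Enzyme (1-5 nM WT or H1047R p110α/p85α) and compound preincubated 1 h first; 10-point 1:3 curves fitted four-parameter for IC50.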

[2] = molecular target: PI3K-α (PIK3CA) in MDA-MB-453 cells (Homo sapiens, UniProt P42336); test: PI3K-alpha kinase (PIK3CA) in vitro cell based assay, MDA-MB-453 cells, SureFire Ultra AlphaLisa; conditions: read-out: PI3K-α (PIK3CA) in vitro cell based assay IC50
Sequence of PI3K-α (PIK3CA) in MDA-MB-453 cells (P27986 2-724): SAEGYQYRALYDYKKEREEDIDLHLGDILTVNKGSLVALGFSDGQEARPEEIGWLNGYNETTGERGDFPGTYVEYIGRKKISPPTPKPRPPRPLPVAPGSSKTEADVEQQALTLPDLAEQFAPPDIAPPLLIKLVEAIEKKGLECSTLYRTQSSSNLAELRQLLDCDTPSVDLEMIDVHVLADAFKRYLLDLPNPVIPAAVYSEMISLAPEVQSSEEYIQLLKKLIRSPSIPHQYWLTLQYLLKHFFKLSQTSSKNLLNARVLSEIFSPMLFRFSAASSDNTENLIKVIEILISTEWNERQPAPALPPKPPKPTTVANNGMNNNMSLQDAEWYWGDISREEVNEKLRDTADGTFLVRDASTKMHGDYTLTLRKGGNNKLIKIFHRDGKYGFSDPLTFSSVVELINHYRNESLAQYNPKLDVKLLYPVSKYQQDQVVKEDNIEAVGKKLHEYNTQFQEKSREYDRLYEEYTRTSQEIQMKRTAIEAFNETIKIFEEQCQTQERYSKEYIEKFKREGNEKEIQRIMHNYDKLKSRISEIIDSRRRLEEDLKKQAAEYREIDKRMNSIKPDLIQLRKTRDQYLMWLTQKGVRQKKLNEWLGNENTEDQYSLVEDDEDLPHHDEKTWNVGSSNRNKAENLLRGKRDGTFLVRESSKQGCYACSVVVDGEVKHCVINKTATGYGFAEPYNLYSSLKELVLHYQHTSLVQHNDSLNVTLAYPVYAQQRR
Sequence of PI3K-α (PIK3CA) in MDA-MB-453 cells (P42336 whole entry): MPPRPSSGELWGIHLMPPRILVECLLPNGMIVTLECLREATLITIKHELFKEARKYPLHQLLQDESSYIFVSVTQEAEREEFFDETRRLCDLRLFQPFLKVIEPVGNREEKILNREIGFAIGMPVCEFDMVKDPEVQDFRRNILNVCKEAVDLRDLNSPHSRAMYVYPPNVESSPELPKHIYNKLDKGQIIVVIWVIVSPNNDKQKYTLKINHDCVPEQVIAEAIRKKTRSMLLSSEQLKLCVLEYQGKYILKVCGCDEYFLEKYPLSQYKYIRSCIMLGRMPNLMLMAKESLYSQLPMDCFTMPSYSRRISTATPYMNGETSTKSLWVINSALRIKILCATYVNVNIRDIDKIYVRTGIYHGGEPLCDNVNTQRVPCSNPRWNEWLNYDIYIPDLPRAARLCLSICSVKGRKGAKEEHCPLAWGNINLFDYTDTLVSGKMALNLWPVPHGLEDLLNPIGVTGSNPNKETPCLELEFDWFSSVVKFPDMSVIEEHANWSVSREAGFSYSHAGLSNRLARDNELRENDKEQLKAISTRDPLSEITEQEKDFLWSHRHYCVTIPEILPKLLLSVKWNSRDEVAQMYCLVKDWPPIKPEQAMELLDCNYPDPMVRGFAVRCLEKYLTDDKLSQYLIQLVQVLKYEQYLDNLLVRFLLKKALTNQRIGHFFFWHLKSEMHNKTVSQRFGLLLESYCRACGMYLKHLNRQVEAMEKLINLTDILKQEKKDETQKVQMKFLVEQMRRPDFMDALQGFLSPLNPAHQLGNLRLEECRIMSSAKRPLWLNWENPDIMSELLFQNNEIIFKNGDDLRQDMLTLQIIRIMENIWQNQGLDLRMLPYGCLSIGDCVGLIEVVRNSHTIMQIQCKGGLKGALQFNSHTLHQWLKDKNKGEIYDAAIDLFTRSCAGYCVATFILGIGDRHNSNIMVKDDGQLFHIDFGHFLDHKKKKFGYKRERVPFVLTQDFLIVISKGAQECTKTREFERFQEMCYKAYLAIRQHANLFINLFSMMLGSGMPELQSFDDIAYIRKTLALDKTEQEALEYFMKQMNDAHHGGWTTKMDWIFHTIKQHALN
Summary of the method: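 Cells treated 3 h in serum-free MEM with 1 μg/mL insulin, 10-point 1:3 series in 0.3% DMSO, then lysed for SureFire Ultra AlphaLisa read-out. Inhibition normalized to DMSO (max) and 1 μM GDC-0032 (min); duplicate averages fitted by 4-parameter logistic for relative IC50.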

[3] = molecular target: T2, PI3K-α (PIK3CA) H1047R mutant, p110α/p85α complex (Homo sapiens, UniProt P42336, H1047R); test: PI3K-alpha kinase (PIK3CA) biochemical activity, ADP-Glo, H1047R mutant; conditions: Soy PI lipid substrate
T2 construct: Recombinant, catalytically active human full length PIK3KA Wild-type and H1047R mutant; 6×His (N); purchased EMD Millipore Sigma 14-792M
T2 sequence (P42336 whole entry H1047R): as the sequence (P42336 whole entry) above, with H1047R counted along it
T2 sequence (P27986 whole entry partner): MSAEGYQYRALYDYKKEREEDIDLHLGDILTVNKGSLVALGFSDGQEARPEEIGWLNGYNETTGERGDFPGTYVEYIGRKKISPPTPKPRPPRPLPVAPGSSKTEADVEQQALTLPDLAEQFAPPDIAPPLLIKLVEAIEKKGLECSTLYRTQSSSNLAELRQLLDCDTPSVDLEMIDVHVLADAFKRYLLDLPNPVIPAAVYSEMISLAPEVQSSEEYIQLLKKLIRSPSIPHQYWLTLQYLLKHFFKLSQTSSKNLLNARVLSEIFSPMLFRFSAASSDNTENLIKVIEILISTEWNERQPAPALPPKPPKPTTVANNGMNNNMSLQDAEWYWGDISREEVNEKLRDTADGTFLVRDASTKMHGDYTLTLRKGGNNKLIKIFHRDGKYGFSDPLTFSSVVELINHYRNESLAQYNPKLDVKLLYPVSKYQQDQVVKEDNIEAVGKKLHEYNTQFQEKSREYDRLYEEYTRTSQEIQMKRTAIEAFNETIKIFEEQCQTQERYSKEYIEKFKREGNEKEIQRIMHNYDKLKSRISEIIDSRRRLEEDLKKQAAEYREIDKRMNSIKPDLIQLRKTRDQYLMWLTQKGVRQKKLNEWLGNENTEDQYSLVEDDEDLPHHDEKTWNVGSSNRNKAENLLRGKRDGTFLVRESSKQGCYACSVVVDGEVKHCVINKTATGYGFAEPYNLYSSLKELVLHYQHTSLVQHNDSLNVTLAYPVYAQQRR
Summary of the method: as §1

| IC50 [1] [nM] | IC50 [2] [nM] | IC50 [3] [nM] | SMILES |
| --- | --- | --- | --- |
| 1000 to 5000 | 100 to 500 | 500 to 1000 | COc1ccc2cc(-c3cc(=O)c4cc(C)cc([C@@H](C)Nc5ccccc5C(=O)O)c4o3)cc(C)c2n1 [Example 248, 2-[[(1R)-1-[2-(2-Methoxy-8-methyl-6-quinolyl)-6-methyl-4-oxo-chromen-8-yl]ethyl]amino]benzoic acid] |
| 1000 to 5000 | 50 to 100 | < 500 | COc1ccc2cc(-c3cc(=O)c4cc(C)cc([C@@H](C)Nc5ccccc5C(=O)O)c4o3)ccc2n1 [Example 249, 2-[[(1R)-1-[2-(2-Methoxy-6-quinolyl)-6-methyl-4-oxo-chromen-8-yl]ethyl]amino]benzoic acid] |
| 500 to 1000 | < 50 | < 500 | Cc1cc([C@@H](C)Nc2ccc(F)cc2C(=O)O)c2oc(-c3ccc4nc(C)sc4n3)c(C)c(=O)c2c1 [Example 254, 2-[[(1R)-1-[3,6-Dimethyl-2-(2-methylthiazolo[5,4-b]pyridin-5-yl)-4-oxo-chromen-8-yl]ethyl]amino]-5-fluoro-benzoic acid] |
| 1000 to 5000 | 50 to 100 | 500 to 1000 | COc1ccc2nc(-c3cc(=O)c4cc(C)cc([C@@H](C)Nc5ccccc5C(=O)O)c4o3)ccc2n1 [Example 255, 2-[[(1R)-1-[2-(6-Methoxy-1,5-naphthyridin-2-yl)-6-methyl-4-oxo-chromen-8-yl]ethyl]amino]benzoic acid] |
| < 500 | 50 to 100 | < 500 | Cc1cc([C@@H](C)Nc2ccc(Cl)cc2C(=O)O)c2oc(-c3ccc4c(cnn4C)c3)c(C)c(=O)c2c1 [Example 259, 5-Chloro-2-[[(1R)-1-[3,6-dimethyl-2-(1-methylindazol-5-yl)-4-oxo-chromen-8-yl]ethyl]amino]benzoic acid] |
| < 500 | < 50 | < 500 | Cc1cc([C@@H](C)Nc2ccc(F)cc2C(=O)O)c2oc(-c3ccc4c(cnn4C)c3)c(C)c(=O)c2c1 [Example 260, 2-[[(1R)-1-[3,6-Dimethyl-2-(1-methylindazol-5-yl)-4-oxo-chromen-8-yl]ethyl]amino]-5-fluoro-benzoic acid] |

Further lines, the molecule ahead of its results:

| SMILES | IC50 [1] [nM] | IC50 [2] [nM] | IC50 [3] [nM] |
| --- | --- | --- | --- |
| Cc1cc([C@@H](C)Nc2ccc(Cl)nc2C(=O)O)c2oc(-c3cc4cccnc4[nH]3)c(C)c(=O)c2c1 [Example 247, 6-Chloro-3-[[(1R)-1-[3,6-dimethyl-4-oxo-2-(1H-pyrrolo[2,3-b]pyridin-2-yl)chromen-8-yl]ethyl]amino]pyridine-2-carboxylic acid] | < 500 | < 50 | < 500 |
| Cc1cc([C@@H](C)Nc2ccc(C)nc2C(=O)O)c2oc(-c3ccc4nc(C)sc4n3)cc(=O)c2c1 [Example 250, 6-Methyl-3-[[(1R)-1-[6-methyl-2-(2-methylthiazolo[5,4-b]pyridin-5-yl)-4-oxo-chromen-8-yl]ethyl]amino]pyridine-2-carboxylic acid] | 5000 to 10000 | 100 to 500 | 1000 to 5000 |
| Cc1cc([C@@H](C)Nc2ccc(Cl)nc2C(=O)O)c2oc(-c3ccc4nc(C)sc4n3)cc(=O)c2c1 [Example 251, 6-Chloro-3-[[(1R)-1-[6-methyl-2-(2-methylthiazolo[5,4-b]pyridin-5-yl)-4-oxo-chromen-8-yl]ethyl]amino]pyridine-2-carboxylic acid] | 1000 to 5000 | 50 to 100 | < 500 |
| Cc1cc([C@@H](C)Nc2ccc(F)cc2C(=O)O)c2oc(-c3ccc4nn(C)cc4c3)c(C)c(=O)c2c1 [Example 253, 2-[[(1R)-1-[3,6-Dimethyl-2-(2-methylindazol-5-yl)-4-oxo-chromen-8-yl]ethyl]amino]-5-fluoro-benzoic acid] | < 500 | < 50 | < 500 |
| Cc1cc([C@@H](C)Nc2ccccc2C(=O)O)c2oc(-c3ccc4nc(C)oc4n3)c(C)c(=O)c2c1 [Example 256, 2-[[(1R)-1-[3,6-Dimethyl-2-(2-methyloxazolo[5,4-b]pyridin-5-yl)-4-oxo-chromen-8-yl]ethyl]amino]benzoic acid] | 500 to 1000 | < 50 | < 500 |
| Cc1cc([C@@H](C)Nc2cccc(F)c2C(=O)O)c2oc(-c3ccc4nc(C)sc4n3)cc(=O)c2c1 [Example 257, 2-Fluoro-6-[[(1R)-1-[6-methyl-2-(2-methylthiazolo[5,4-b]pyridin-5-yl)-4-oxo-chromen-8-yl]ethyl]amino]benzoic acid] | 1000 to 5000 | < 50 | < 500 |
| Cc1cc([C@@H](C)Nc2ccc(Cl)cc2C(=O)O)c2oc(-c3ccc4nn(C)cc4c3)c(C)c(=O)c2c1 [Example 258, 5-Chloro-2-[[(1R)-1-[3,6-dimethyl-2-(2-methylindazol-5-yl)-4-oxo-chromen-8-yl]ethyl]amino]benzoic acid] | 500 to 1000 | < 50 | < 500 |
| Cc1cc([C@@H](C)Nc2ccccc2C(=O)O)c2oc(-c3ccc4nc(C)oc4c3)c(C)c(=O)c2c1 [Example 261, 2-[[(1R)-1-[3,6-Dimethyl-2-(2-methyl-1,3-benzoxazol-6-yl)-4-oxo-chromen-8-yl]ethyl]amino]benzoic acid] | 500 to 1000 | < 50 | < 500 |
| Cc1cc([C@@H](C)Nc2ccccc2C(=O)O)c2oc(-c3ccc4nc(C)sc4c3)c(C)c(=O)c2c1 [Example 262, 2-[[(1R)-1-[3,6-Dimethyl-2-(2-methyl-1,3-benzothiazol-6-yl)-4-oxo-chromen-8-yl]ethyl]amino]benzoic acid] | 500 to 1000 | < 50 | < 500 |
| Cc1cc([C@@H](C)Nc2ccc(Cl)nc2C(=O)O)c2oc(-c3nc4ccccc4o3)c(C)c(=O)c2c1 [Example 263, 3-[[(1R)-1-[2-(1,3-benzoxazol-2-yl)-3,6-dimethyl-4-oxo-chromen-8-yl]ethyl]amino]-6-chloro-pyridine-2-carboxylic acid; 2,2,2-trifluoroacetic acid] | 1000 to 5000 | < 50 | < 500 |
| Cc1cc([C@@H](C)Nc2cccc(F)c2C(=O)O)c2oc(-c3cc4cnccc4o3)c(C)c(=O)c2c1 [Example 264, 2-Fluoro-6-[[(1R)-1-(2-furo[3,2-c]pyridin-2-yl-3,6-dimethyl-4-oxo-chromen-8-yl)ethyl]amino]benzoic acid; 2,2,2-trifluoroacetic acid] | < 500 | < 50 | < 500 |
| Cc1cc([C@@H](C)Nc2ccc(C)nc2C(=O)O)c2oc(-c3ccc4nc(C)sc4n3)c(C)c(=O)c2c1 [Example 265, 3-[[(1R)-1-[3,6-Dimethyl-2-(2-methylthiazolo[5,4-b]pyridin-5-yl)-4-oxo-chromen-8-yl]ethyl]amino]-6-methyl-pyridine-2-carboxylic acid] | 1000 to 5000 | 50 to 100 | < 500 |
